Target: T1, RmlT (Listeria monocytogenes, UniProt Q8Y838)
T1 sequence (Q8Y838 1-623): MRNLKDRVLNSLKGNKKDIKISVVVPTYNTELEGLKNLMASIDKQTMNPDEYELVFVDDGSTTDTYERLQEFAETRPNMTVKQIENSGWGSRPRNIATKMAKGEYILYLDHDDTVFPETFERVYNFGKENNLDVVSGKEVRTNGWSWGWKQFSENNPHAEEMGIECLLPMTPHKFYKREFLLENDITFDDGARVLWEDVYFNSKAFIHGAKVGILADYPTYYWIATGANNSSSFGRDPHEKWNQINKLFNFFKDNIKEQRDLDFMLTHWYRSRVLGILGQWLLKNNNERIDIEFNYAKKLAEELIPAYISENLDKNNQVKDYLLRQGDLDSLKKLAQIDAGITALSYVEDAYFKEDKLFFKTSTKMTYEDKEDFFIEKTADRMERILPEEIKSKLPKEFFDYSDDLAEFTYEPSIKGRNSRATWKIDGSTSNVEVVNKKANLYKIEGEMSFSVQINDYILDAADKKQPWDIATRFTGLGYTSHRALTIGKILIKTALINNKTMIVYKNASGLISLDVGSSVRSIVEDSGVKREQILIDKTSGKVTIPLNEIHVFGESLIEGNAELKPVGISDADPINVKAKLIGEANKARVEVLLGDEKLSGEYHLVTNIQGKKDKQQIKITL
Test: isothermal titration calorimetry
Type: binding

| Structure (SMILES) | Kd [µM] |
| --- | --- |
| Cc1cn([C@H]2C[C@H](O)[C@@H](COP(=O)(O)OP(=O)(O)O[C@H]3O[C@H](CO)[C@@H](O)[C@H](O)[C@H]3O)O2)c(=O)[nH]c1=O [TDP-glucose] | ~10 |
| Cc1cn([C@H]2C[C@H](O)[C@@H](COP(=O)(O)OP(=O)(O)O[C@H]3O[C@@H](C)[C@H](O)[C@@H](O)[C@H]3O)O2)c(=O)[nH]c1=O [TDP-rhamnose] | ~13 |
| Cc1cn([C@H]2C[C@H](O)[C@@H](COP(=O)(O)OP(=O)(O)O)O2)c(=O)[nH]c1=O [TDP] | ~50 |

— paper PMC11697029 (Nature Communications, 2025)
